Experimental data: ChEMBL document CHEMBL1629541, “Synthesis and structure-activity relationships of aza- and diazabiphenyl analogues of the antitubercular drug (6S)-2-nitro-6-{[4-(trifluoromethoxy)benzyl]oxy}-6,7-dihydro-5H-imidazo[2,1-b][1,3]oxazine (PA-824)” (J Med Chem, 2010)
≈ marks a conversion by molar mass, not a printed value.

Assays:
[1] = physchem; conditions: water, pH 7
Description: Solubility of the compound in water at pH 7.0 by HPLC

[2] = physchem; conditions: water, pH 1
Description: Solubility of the compound in water at pH 1.0 by HPLC

[3] = in vitro; conditions: human, liver microsomes
Description: Metabolic stability in human liver microsomes assessed as compound remaining after 1 hr

[4] = in vitro; conditions: CD1, mouse, liver microsomes
Description: Metabolic stability in CD1 mouse liver microsomes assessed as compound remaining after 1 hr

[5] = tested on: Mycobacterium tuberculosis; experiment: microbe, parasite or virus in culture; conditions: H37Rv
[6] = tested on: Mycobacterium tuberculosis; experiment: microbe, parasite or virus in culture; conditions: H37Rv; remark: listed apart in the source
Description: Antitubercular activity against Mycobacterium tuberculosis H37Rv by LORA method

[7] = AUC (0-infinity) in CD1 mouse plasma at 40 mg/kg, po administered as single dose; assay type: ADME, organism-based; set-up: time infinity, dose 40 mg/kg, route oral
[8] = Cmax in CD1 mouse plasma at 40 mg/kg, po administered as single dose; assay type: ADME, organism-based; set-up: dose 40 mg/kg, route oral
[9] = Half life in CD1 mouse plasma at 40 mg/kg, po administered as single dose; assay type: ADME, organism-based; set-up: dose 40 mg/kg, route oral
[10] = AUC (0-infinity) in CD1 mouse lung at 40 mg/kg, po administered as single dose; assay type: ADME, organism-based; set-up: time infinity, dose 40 mg/kg, route oral
[11] = Cmax in CD1 mouse lung at 40 mg/kg, po administered as single dose; assay type: ADME, organism-based; set-up: dose 40 mg/kg, route oral
[12] = Half life in CD1 mouse lung at 40 mg/kg, po administered as single dose; assay type: ADME, organism-based; set-up: dose 40 mg/kg, route oral
[13] = Thermodynamic solubility in aqueous buffer at pH 1 at 20 degC by HPLC; assay type: physicochemical; conditions: aqueous buffer
[14] = Thermodynamic solubility in aqueous buffer at pH 7.4 at 20 degC by HPLC; assay type: physicochemical

| SMILES | solubility [1] [µg/mL] | MIC [5] [µM] | MIC [6] [µM] | also measured |
| --- | --- | --- | --- | --- |
| O=[N+]([O-])c1cn2c(n1)OC[C@@H](OCc1cncc(-c3ccc(F)cc3)c1)C2 | 45 (≈ 122 µM) | 0.31 (≈ 0.115 µg/mL) | 7.7 (≈ 2.85 µg/mL) | solubility [2]: 41000 µg/mL (≈ 111000 µM); remaining at 1 h [3]: 71%; remaining at 1 h [4]: 39% |
| O=[N+]([O-])c1cn2c(n1)OC[C@@H](OCc1ccnc(-c3ccc(OC(F)(F)F)cc3)c1)C2 | 3.9 (≈ 8.94 µM) | 0.035 (≈ 0.0153 µg/mL) | 2.4 (≈ 1.05 µg/mL) | remaining at 1 h [3]: 54%; remaining at 1 h [4]: 31% |
| O=[N+]([O-])c1cn2c(n1)OC[C@@H](OCc1ccc(-c3ccc(C(F)(F)F)cn3)cn1)C2 | 5.9 (≈ 14 µM) | 0.83 (≈ 0.35 µg/mL) | 9.6 (≈ 4.04 µg/mL) | solubility [2]: 442 µg/mL (≈ 1050 µM) |
| O=[N+]([O-])c1cn2c(n1)OC[C@@H](OCc1ccc(-c3ccc(Cl)c(OC(F)(F)F)c3)cn1)C2 | 0.8 (≈ 1.7 µM) | 0.06 (≈ 0.0282 µg/mL) | 2.3 (≈ 1.08 µg/mL) |  |
| O=[N+]([O-])c1cn2c(n1)OC[C@@H](OCc1ccc(-c3cccc(F)n3)cn1)C2 | 41 (≈ 110 µM) | 1.4 (≈ 0.52 µg/mL) | 20 (≈ 7.43 µg/mL) |  |
| O=[N+]([O-])c1cn2c(n1)OC[C@@H](OCc1ccc(-c3ccc(C(F)(F)F)nc3)cn1)C2 | 12 (≈ 28.5 µM) | 0.24 (≈ 0.101 µg/mL) | 16 (≈ 6.74 µg/mL) |  |
| O=[N+]([O-])c1cn2c(n1)OC[C@@H](OCc1ccc(-c3ccc(F)nc3)cn1)C2 | 43 (≈ 116 µM) | 0.49 (≈ 0.182 µg/mL) | 19 (≈ 7.06 µg/mL) |  |
| O=[N+]([O-])c1cn2c(n1)OC[C@@H](OCc1ccc(-c3cncc(F)c3)cn1)C2 | 130 (≈ 350 µM) | 2.6 (≈ 0.965 µg/mL) | 21 (≈ 7.8 µg/mL) |  |
| COc1ccc(-c2ccc(CO[C@@H]3COc4nc([N+](=O)[O-])cn4C3)nc2)cn1 | 24 (≈ 62.6 µM) | 0.36 (≈ 0.138 µg/mL) | 9.6 (≈ 3.68 µg/mL) |  |
| O=[N+]([O-])c1cn2c(n1)OC[C@@H](OCc1ccc(-c3ccncc3F)cn1)C2 | 700 (≈ 1890 µM) | 3.2 (≈ 1.19 µg/mL) | 20 (≈ 7.43 µg/mL) |  |
| O=[N+]([O-])c1cn2c(n1)OC[C@@H](OCc1ccc(-c3ccnc(F)c3)cn1)C2 | 42 (≈ 113 µM) | 1.7 (≈ 0.631 µg/mL) | 14 (≈ 5.2 µg/mL) |  |
| O=[N+]([O-])c1cn2c(n1)OC[C@@H](OCc1ccc(-c3ccc(C(F)(F)F)cc3)nc1)C2 | 1.2 (≈ 2.85 µM) | 0.053 (≈ 0.0223 µg/mL) | 0.53 (≈ 0.223 µg/mL) |  |
| N#Cc1ccc(-c2ccc(CO[C@@H]3COc4nc([N+](=O)[O-])cn4C3)cn2)cc1 | 2.9 (≈ 7.68 µM) | 0.18 (≈ 0.0679 µg/mL) | 6 (≈ 2.26 µg/mL) |  |
| O=[N+]([O-])c1cn2c(n1)OC[C@@H](OCc1ccc(-c3ccc(F)cc3)nc1)C2 |  | 0.06 (≈ 0.0222 µg/mL) | 2.9 (≈ 1.07 µg/mL) | AUC(0-inf) [7]: 61 µg·h/mL; Cmax [8]: 5300 ng/mL; half-life [9]: 2.7 h; AUC(0-inf) [10]: 136 µg·h/mL; Cmax [11]: 11000 ng/mL; half-life [12]: 2.8 h; solubility thermodynamic [13]: > 93 µg/mL; solubility thermodynamic [14]: 5.9 µg/mL (≈ 15.9 µM); solubility [2]: 1000 µg/mL (≈ 2700 µM); remaining at 1 h [3]: 88%; remaining at 1 h [4]: 80% |
| O=[N+]([O-])c1cn2c(n1)OC[C@@H](OCc1ccc(-c3ccc(OC(F)F)cc3)nc1)C2 | 1.6 (≈ 3.82 µM) | 0.02 (≈ 0.00837 µg/mL) | 3.4 (≈ 1.42 µg/mL) |  |
| COc1ccc(-c2ccc(CO[C@@H]3COc4nc([N+](=O)[O-])cn4C3)cn2)cc1F | 2.1 (≈ 5.25 µM) | 0.09 (≈ 0.036 µg/mL) | 1.9 (≈ 0.761 µg/mL) |  |
| O=[N+]([O-])c1cn2c(n1)OC[C@@H](OCc1ccc(-c3ccc(OC(F)(F)F)c(Cl)c3)nc1)C2 |  | 0.017 (≈ 0.008 µg/mL) | 1 (≈ 0.471 µg/mL) | AUC(0-inf) [7]: 88 µg·h/mL; Cmax [8]: 2900 ng/mL; half-life [9]: 22 h; AUC(0-inf) [10]: 284 µg·h/mL; Cmax [11]: 10000 ng/mL; half-life [12]: 14 h; solubility thermodynamic [13]: 17 µg/mL (≈ 36.1 µM); solubility thermodynamic [14]: 0.19 µg/mL (≈ 0.404 µM); solubility [2]: 39 µg/mL (≈ 82.8 µM); remaining at 1 h [3]: 87%; remaining at 1 h [4]: 77% |
| O=[N+]([O-])c1cn2c(n1)OC[C@@H](OCc1ccc(-c3ccc(OC(F)(F)F)cc3F)nc1)C2 | 2.2 (≈ 4.84 µM) | 0.047 (≈ 0.0214 µg/mL) | 1.9 (≈ 0.863 µg/mL) |  |
| O=[N+]([O-])c1cn2c(n1)OC[C@@H](OCc1ccc(-c3ccc(Cl)c(OC(F)(F)F)c3)nc1)C2 | 0.22 (≈ 0.467 µM) | 0.18 (≈ 0.0847 µg/mL) | 2.4 (≈ 1.13 µg/mL) |  |
| O=[N+]([O-])c1cn2c(n1)OC[C@@H](OCc1ccc(-c3ccc(C(F)(F)F)nc3)nc1)C2 | 7 (≈ 16.6 µM) | 0.19 (≈ 0.0801 µg/mL) | 17 (≈ 7.16 µg/mL) |  |
| O=[N+]([O-])c1cn2c(n1)OC[C@@H](OCc1ccc(-c3ccc(F)nc3)nc1)C2 | 51 (≈ 137 µM) | 0.37 (≈ 0.137 µg/mL) | 13 (≈ 4.83 µg/mL) |  |
| COc1ccc(-c2ccc(CO[C@@H]3COc4nc([N+](=O)[O-])cn4C3)cn2)cn1 | 51 (≈ 133 µM) | 0.24 (≈ 0.092 µg/mL) | 7.3 (≈ 2.8 µg/mL) |  |
| O=[N+]([O-])c1cn2c(n1)OC[C@@H](OCc1ccc(-c3ccc(C(F)(F)F)cc3)nn1)C2 | 5.4 (≈ 12.8 µM) | 0.06 (≈ 0.0253 µg/mL) | 2.8 (≈ 1.18 µg/mL) |  |
